The results in this text go back to patent US20250382289A1, “PYRAZOLOPYRIDINE DERIVATIVE AND APPLICATION THEREOF IN MEDICINE” (XIZANG HAISCO PHARMACEUTICAL CO., LTD., priority 2022, published 2025).

SMILES strings stand for the structures. Read-outs that look alike come from different tables or passages of the source.

The nature of data set [1]: Pharmacokinetic test in mice. Type of data set: in vivo, ICR mice. The conditions noted are these: plasma, i.g. 10 mg/kg. Here is the method:
Experimental animals: Male ICR mice, 25-30 g, were purchased from Chengdu Ddossy Experimental Animals Co., Ltd.
Experimental design: On the day of the experiment, the ICR mice were randomly grouped according to their body weights. The animals were fasted with water available for 12 to 14 h one day before the administration, and were fed 4 h after the administration.
Before and after the administration, blood was taken from the orbit of the animals at specified time points and placed in an EDTAK2 centrifuge tube. The blood was centrifuged at 5000 rpm and 4° C. for 10 min to collect plasma. The blood collection time points for the intravenous group and intragastric administration group were: 0, 5 min, 15 min, 30 min, 1 h, 2 h, 4 h, 7 h, and 24 h. Before analysis and detection, all samples were stored below −60° C. The samples were analyzed quantitatively by LC-MS/MS.

Another data set deals with MDA-MB-436 cells. The data set can be described thus: Clone formation test of MDA-MB-436 cells. Conditions: 14 days, crystal violet, OD 570 nm, read-out: IC50 (nM), inhibitory activity on MDA-MB-436 cell clones. The format is cell-based. How it is done: In this experiment, MDA-MB-436 cells were treated by adding a test compound to detect the ability of cell clone formation. At the beginning of the experiment, MDA-MB-436 cells (ATCC, HTB-130) were added to a 96-well plate (Corning, 3599), with 500 cells per well, and they were subjected to adherent culture overnight. The next day, the compound diluted in a gradient was added, and culture was continued in a […] incubator at 37° C. On the 7th day, the old culture medium was discarded, and the test compound diluted in a gradient was added again. At the 14th day, the 96-well plate was taken out, the culture liquid was discarded, and cell clones were detected by Crystal violet Assay kit. PHERAstar FSX microplate reader (BMG LABTECH) was used for detection of OD at 570 nm. The IC50 value was calculated using GraphPad Prism software.

The next data set deals with USP1/UAF1 (Homo sapiens (Human), UniProt O94782). The data set can be described thus: Inhibitory activity on USP1/UAF1 enzymology (ubiquitin rhodamine 110 substrate). Type of data set: biochemical. Conditions: 0.5 nM USP1/UAF1, 500 nM ubiquitin rhodamine 110. How it is done:
Ubiquitin rhodamine 110 was used as a substrate to detect the activity of the deubiquitinating enzyme USP1/UAF1 after drug treatment. The total test system was 20 μl, and the test buffer comprises 50 mM Tris-HCl (pH 7.8), 0.5 mM EDTA, 0.01% Bovine Serum Albumin, 1 mM DTT, and 0.01% Tween-20. At the beginning of the experiment, 0.5 nM USP1/UAF1 (Bio-Techne, E-568-050) protein was added to a 384-well plate (PerkinElmer, 6008269), and the test compound diluted in a gradient was then added. After incubation at room temperature for 10 min, 500 nM ubiquitin rhodamine 110 (Bio-Techne, U-555-050) was added, and the mixture was incubated at room temperature for 20 min. Enspire™ Multilabel Reader microplate reader (PerkinElmer) was used for detection at excitation light of 485 nm/emission light of 535 nm. The IC50 value was calculated using GraphPad Prism software.

Data set [2] in a line: Pharmacokinetic test in beagle dogs. Type of data set: in vivo. Conditions: i.g. 5 mg/kg. Here is the method: Experimental objective: a single dose of test compounds was administered to beagle dogs intravenously and intragastrically, and the concentrations of the test compounds in plasma of the beagle dogs were measured to evaluate pharmacokinetic characteristics of the test compounds in the beagle dogs.
Experimental animals: male beagle dogs, about 8-11 kg, were purchased from Beijing Marshall Biotechnology Co., Ltd.
Experimental method: On the day of the experiment, the beagle dogs were randomly grouped according to their body weights. The animals were fasted but with water available for 14 to 18 hours one day before administration, and were fed 4 hours after administration. The administration was performed based on the information in the following table.
Vehicle for intravenous administration: 5% DMA+5% Solutol+90% Saline; Vehicle for intragastric administration: 0.5% MC
(DMA: dimethylacetamide; Solutol: polyethylene glycol-60-hydroxystearate; Saline: physiological saline; MC: Methylcellulose solution)
Sampling: Before and after the administration, blood was taken from the jugular veins or limb veins, and placed in an EDTAK2 centrifuge tube. Centrifugation was performed at 5000 rpm at 4° C. for 10 min, and plasma was collected.
Time points for blood collection: 0, 5 min, 15 min, 30 min, 1 h, 2 h, 4 h, 6 h, 8 h, 10 h, 12 h, 24 h, 48 h, and 72 h. Before analysis and detection, all the samples were stored at −60° C. or lower. The samples were analyzed quantitatively by LC-MS/MS.

Setting [3] is: Homo sapiens, MDA-MB-436, 336 h.

Chain of USP1/UAF1 (O94782 whole entry): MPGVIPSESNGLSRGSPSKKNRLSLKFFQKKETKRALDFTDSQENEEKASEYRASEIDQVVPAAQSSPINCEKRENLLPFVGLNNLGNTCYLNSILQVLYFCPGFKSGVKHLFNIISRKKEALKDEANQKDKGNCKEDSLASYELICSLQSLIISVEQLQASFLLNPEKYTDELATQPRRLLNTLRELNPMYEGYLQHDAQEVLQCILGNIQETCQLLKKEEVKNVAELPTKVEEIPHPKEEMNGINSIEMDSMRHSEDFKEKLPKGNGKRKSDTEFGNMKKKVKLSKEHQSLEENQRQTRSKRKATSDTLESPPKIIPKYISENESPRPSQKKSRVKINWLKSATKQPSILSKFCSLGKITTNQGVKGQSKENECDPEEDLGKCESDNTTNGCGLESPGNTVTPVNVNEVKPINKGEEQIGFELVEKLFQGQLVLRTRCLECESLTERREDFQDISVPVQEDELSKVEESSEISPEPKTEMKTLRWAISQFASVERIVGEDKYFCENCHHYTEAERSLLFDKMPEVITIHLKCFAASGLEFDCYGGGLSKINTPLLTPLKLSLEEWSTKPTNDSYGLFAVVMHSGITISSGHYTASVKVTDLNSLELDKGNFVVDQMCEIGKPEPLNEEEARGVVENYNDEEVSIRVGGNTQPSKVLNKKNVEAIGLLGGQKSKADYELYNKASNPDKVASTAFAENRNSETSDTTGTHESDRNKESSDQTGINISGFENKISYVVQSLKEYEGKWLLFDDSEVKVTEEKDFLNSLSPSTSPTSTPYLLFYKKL
Chain of USP1/UAF1 (Q8TAF3 whole entry partner): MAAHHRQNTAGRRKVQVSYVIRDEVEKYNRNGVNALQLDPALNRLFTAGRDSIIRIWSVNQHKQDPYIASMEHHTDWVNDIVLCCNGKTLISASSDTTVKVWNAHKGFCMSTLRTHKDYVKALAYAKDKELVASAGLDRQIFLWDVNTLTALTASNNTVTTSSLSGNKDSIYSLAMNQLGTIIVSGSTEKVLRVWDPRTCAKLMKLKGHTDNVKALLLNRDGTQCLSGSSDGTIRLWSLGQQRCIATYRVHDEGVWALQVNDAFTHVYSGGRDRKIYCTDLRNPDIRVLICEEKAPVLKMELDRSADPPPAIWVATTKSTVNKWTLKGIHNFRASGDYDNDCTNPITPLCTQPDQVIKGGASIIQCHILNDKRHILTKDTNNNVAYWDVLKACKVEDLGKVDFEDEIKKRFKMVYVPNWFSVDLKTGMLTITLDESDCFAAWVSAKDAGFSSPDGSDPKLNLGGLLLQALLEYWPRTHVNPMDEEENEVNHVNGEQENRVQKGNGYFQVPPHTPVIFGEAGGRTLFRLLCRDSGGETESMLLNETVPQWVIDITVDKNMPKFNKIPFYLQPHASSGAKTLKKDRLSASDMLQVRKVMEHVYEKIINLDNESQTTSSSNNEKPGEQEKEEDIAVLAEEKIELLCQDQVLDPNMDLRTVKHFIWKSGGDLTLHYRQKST

For `Fc1c(-c2c(OC(F)F)ncnc2C2CC2)ncc2cnn(Cc3ccc(-c4nc(C(F)(F)F)c5n4CC4(CC4)C5)cc3)c12` [Compound 12], the Oral absorption entry in data set [1] was “Yes”.

As for `C#CCn1cc(C(F)(F)F)nc1C12CCC(Cn3ncc4cnc(-c5c(OC)ncnc5C5CC5)c(F)c43)(CC1)CC2` [Compound 8], the Oral absorption entry in data set [1] is “Yes”.

As to `Fc1c(-c2c(OC(F)F)ncnc2C2CC2)ncc2cnn(Cc3ccc(-c4nc(C(F)(F)F)c5n4CC(F)(F)C5)cc3)c12` [Compound 14], in data set [1], the Oral absorption result is reported as “Yes”.

Usually IC50 stands for the concentration that inhibits the measured activity by half. Take `CC(C)n1cc(C(F)(F)F)nc1-c1ccc(Cn2ncc3cnc(-c4c(OC(F)F)ncnc4C4CC4)c(F)c32)cc1` [Compound 20]: in the data set on MDA-MB-436 cells (setting [3]), the IC50 was below 200 nM.

`COc1ncnc(C2CC2)c1-c1ncc2cnn(Cc3ccc(-c4nc(C(F)(F)F)c5n4[C@@H](C)CC5)cc3)c2c1F` [Compound 22]: in the data set on MDA-MB-436 cells (setting [3]), the IC50 is below 200 nM. Besides, the Oral absorption result in data set [1] was “Yes”.

For `C#CCn1cc(C(F)(F)F)nc1-c1ccc(Cn2ncc3cnc(-c4c(OC)ncnc4C4CC4)c(F)c32)cc1` [Compound 16], the results for the IC50 on USP1/UAF1 and in the data set with MDA-MB-436 cells (setting [3]) were below 20 nM and below 200 nM, respectively. In addition, in data set [1], the Oral absorption entry is on record as “Yes”.

On to `[2H]C([2H])([2H])C([2H])(n1cc(C(F)(F)F)nc1C12CCC(Cn3ncc4cnc(-c5c(OC(F)F)ncnc5C5CC5)c(F)c43)(CC1)CC2)C([2H])([2H])[2H]` [Compound 15], for which, in the data set on MDA-MB-436 cells (setting [3]), the IC50 was below 200 nM.

As for `COc1ncnc(C2CC2)c1-c1ncc2cnn(Cc3ccc(-c4nc(C(F)(F)F)c5n4CC4(CC4)C5)cc3)c2c1F` [Compound 21], in data set [1], the Oral absorption result is listed as “Yes”.

For `CC(C)n1cc(C(F)(F)F)nc1C12CCC(Cn3ncc4cnc(-c5c(OC(F)F)ncnc5C5CC5)c(F)c43)(CC1)CC2` [Compound 4], the results for the IC50 at USP1/UAF1 and with MDA-MB-436 cells were below 20 nM and below 200 nM, respectively.

Consider `Fc1c(-c2c(OC(F)F)ncnc2C2CC2)ncc2cnn(CC34CCC(c5nc(C(F)(F)F)cn5CC5CC5)(CC3)CC4)c12` [Compound 10], for which the IC50 with MDA-MB-436 cells (setting [3]) is below 200 nM.

As to `COc1ncnc(C2CC2)c1-c1ncc2cnn(CC34CCC(c5nc(C(F)(F)F)cn5C(C)C)(CC3)CC4)c2c1F` [Compound 2], the IC50 against USP1/UAF1 was below 20 nM; with MDA-MB-436 cells, below 200 nM. In data set [2], the “F (%)” value came out at 41.2%. For the same molecule, in data set [2] (plasma), the AUC0-t was found to be 6.302 µg·h/mL. Also, the Oral absorption result in data set [1] was “Yes”.

Consider `COc1ncnc(C2CC2)c1-c1ncc2cnn(Cc3ccc(-c4nc(C(F)(F)F)cn4C(C)C)cc3)c2c1F` [Compound 1], for which the IC50 is below 20 nM against USP1/UAF1 and below 200 nM in the data set with MDA-MB-436 cells. Besides, the Oral absorption result in data set [1] is recorded as “Yes”.

One may read the bioavailability as the share of a dose that reaches the circulation, judged against a reference dose that is usually intravenous. Read a low bioavailability as poor availability. `COc1ncnc(C2CC2)c1-c1ncc2cnn(Cc3ccc(-c4nc(C(F)(F)F)cn4C(C)C)cc3)c2n1` [Control compound A, reference compound] displayed a bioavailability in data set [2] (male, dog, plasma, po) of 15.8%. In addition, the AUC0-t in data set [2] (male, dog, po, plasma, read-out: AUC0-t) was found to be 0.994 µg·h/mL.
